According to patent publication US20200048308A1, “INFLUENZA VIRUS NE[…]” (priority 2016, published 2020):

Columns and labels:
[1] = system: influenza virus A/New Caledonia (H1); assay: Virus neutralization assay (VNA) on Calu-3 cells; type: cell-based, influenza A virus H1N1 A/New Caledonia/20/1999
[2] = molecular target: H1/Nca HA (biotinylated full length trimeric HA, A/New Caledonia/20/1999) (Influenza A virus, UniProt Q6WG00); assay: AlphaLISA competition assay with HB80.4, H1/NCa HA; type: binding, influenza A virus H1N1 A/New Caledonia/20/1999
Excerpt: (§1) Binding competition studies were designed to test compounds of the invention for competition with other well characterized HA binding proteins (such as e.g. CR9114, CR6261 and HB80.4) with known epitopes on HA. The epitopes where either located at the stem of the HA (viral membrane proximal part of HA) or, for control purposes, at the head of HA (viral membrane distal part of HA). If competition was observed, it was assumed that both molecules bind to a similar or at least overlapping epitope at the surface of HA. Competition with a HA head- and stem-binder was interpreted as unspecific binding.
(§2) Hereto an AlphaLISA competition assay (Perkin Elmer) was established which relied on biotinylated full length and trimeric HA proteins (Protein Sciences, 10 μL, 0.5 nM final concentration in 50 μL) bound by HA-specific binders. The interaction between HA and the binder was detected after 1 h incubation at room temperature (RT) with two beads, a streptavidin donor bead recognizing HA (10 μL of 10 μg/mL) and an anti Fc bead (10 μg/mL) recognizing the IgGs used. If after an additional hour of incubation at RT the excited donor bead (680 nm) and acceptor bead are in close proximity, an energy transfer (singlet oxygen) can be measured as a luminescence signal of the acceptor bead (Perkin Elmer EnVision plate reader). The signal intensity in this homogeneous assay format is directly proportional to the binding strength (affinity/avidity) between both binding partners.

[3] = molecular target: H1/Cal HA (biotinylated full length trimeric HA, A/California/07/2009) (Influenza A virus, UniProt C3W5X2); assay: AlphaLISA competition assay with HB80.4, H1/Cal HA; type: binding, influenza A virus H1N1 A/California/07/2009
Excerpt: as §1, §2

CSCC[C@@H]1NC(=O)CNC(=O)CNC(=O)[C@H](C)NC(=O)[C@H](C(C)C)NC(=O)CNC(=O)[C@H](CC(C)C)NC(=O)[C@@H]2CCCN2C(=O)[C@H](CC(=O)O)NC(=O)[C@H](CCC(=O)O)NC(=O)[C@H](Cc2ccc(O)cc2)NC(=O)[C@H](CC(C)C)NC(=O)[C@H](CO)NC(=O)[C@H]2CCCN2C(=O)[C@@H]2CCCN2C(=O)[C@H](C(C)C)NC(=O)CNC1=O [CP141091, D-Pro-Ser-Leu-Tyr-Glu-Asp-Pro-Leu-Gly-Val-Ala-Gly-Gly-Met-Gly-Val-Pro]
VNA_H1_NCa_Calu3 pIC50 [1]: 4.2 | IC50 [2]: 6.31 µM | IC50 [3]: 5.01 µM
